Tests used:
[1] = tested on: A549; assay: Cytotoxicity against human A549 cells after 48 hrs by neutral red uptake assay; type: cell-based; details: a549, 48 h
[2] = tested on: MDCK; assay: Cytotoxicity against MDCK cells after 48 hrs by neutral red uptake assay; type: cell-based, Canis lupus familiaris; details: dog

SMILES | CC50 [1] [µM] | CC50 [2] [µM]
Clc1cc(-c2cc(CNC34CC5CC(CC(C5)C3)C4)no2)cs1 | 52.6 | 35.6
COc1sccc1-c1cc(CNC23CC4CC(CC(C4)C2)C3)no1 | 35.5 | 30.6
OC12CC3CC(C1)CC(NCc1cc(-c4cc(Cl)sc4Cl)on1)(C3)C2 |  | 87.6
OC12CC3CC(C1)CC(NCc1cc(-c4ccccc4Cl)on1)(C3)C2 | 143 | 64.1
CSc1ccccc1-c1cc(CNC23CC4CC(CC(O)(C4)C2)C3)no1 | 102 | 59.3
Oc1ccccc1-c1cc(CNC23CC4CC(CC(C4)C2)C3)no1 | 78.2 | 73.7
Clc1cc(-c2cc(CNC34CC5CC(CC(C5)C3)C4)no2)c(Cl)s1 | 61.4 | 39.3
